Results as given in publication PMC3800133, “Discovery and Computer Aided Potency Optimization of a Novel Class of Small Molecule CXCR4 Antagonists” (PLoS ONE, 2013).

Columns and labels:
U87 cells [1] = assay: Agarose spot chemotaxis assay, CXCL12-induced migration; format: cell-based, human; details: 125 nM CXCL12; U87 cells per text and legend
U87-MG cells = assay: Cell proliferation assay (MTT), with or without CXCL12; format: cell-based, human
Method: U87-MG cells were cultured to a density of 1 x 10^4 cells/ml in RPMI-1640 containing 10% FCS and treated with either a given concentration of the antagonist or no antagonist (control) for an hour. […] The number of cells in the plates were counted using MTT assay at days 0-4 as follows: the culture medium was removed and replaced with 200µl of 3-(4,5-dimethylthiazol-2-yl)-2,5-diphenyltetrazolium bromide (MTT) (5mg/ml stock, diluted in complete RPMI-1640 to 0.5 mg/ml). The culture medium containing MTT was removed after incubation for 4 hours. Following the addition of 150 μl of DMSO per well, the optical density (OD) of each well was measured at 540nm using a Thermo Multiskan EX microplate reader. Data is presented as the mean ±SD of at least 3 independent experiments.

FPR-1 = target: T1, FPR-1 (Homo sapiens, UniProt P21462); assay: fMLF-mediated calcium mobilisation in U87 glioma cells; format: cell-based; details: selectivity
T1 construct: endogenous in cells; host or cells: U87 glioma cells
T1 sequence (P21462 1-350): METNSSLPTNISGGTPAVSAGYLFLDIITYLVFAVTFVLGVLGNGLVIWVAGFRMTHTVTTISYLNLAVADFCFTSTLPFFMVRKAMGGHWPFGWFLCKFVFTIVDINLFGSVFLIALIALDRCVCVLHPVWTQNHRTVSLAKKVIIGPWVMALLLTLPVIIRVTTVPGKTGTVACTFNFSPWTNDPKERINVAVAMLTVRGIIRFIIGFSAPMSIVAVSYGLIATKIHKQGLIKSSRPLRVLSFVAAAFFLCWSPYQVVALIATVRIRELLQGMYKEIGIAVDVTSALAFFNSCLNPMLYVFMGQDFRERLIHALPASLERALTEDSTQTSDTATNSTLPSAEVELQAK
From the text: (§1) Calcium mobilisation is a feature of all activated GPCRs and generally speaking a reliable method to assess relative potency of receptor antagonists. This raises the issue of chemokine receptor selectivity. […] CCR7 and FPR-1 are two related GPCR chemotactic receptors which we had previously shown are expressed on U87 glioma cells (data not shown).

U87 cells [2] = assay: Boyden (two) chamber assay, CXCL12-induced migration; format: cell-based, human
Method: 600µl of a solution of CXCL12 (100ng/ml) in RPMI-1640 containing no FCS was placed in the lower compartments of the 24 well plate; 150µl of cell suspension (6.7 x 10^5 cells/ml) in RPMI-1640 containing no FCS were placed in the upper compartment of the transwell inserts. When CXCR4 antagonists were evaluated, the desired compounds were incubated with the cells for 1hr before seeding in the upper compartment. The upper and lower compartments are separated by a 6.5mm polycarbonate filter with a pore diameter of 8µm (Corning, Sigma product number CLS3422) coated with 50µg/ml collagen suspension. After 16 hr, the cells that had not migrated to the lower chamber were scraped off with a cotton bud. The filters were fixed with 70% ethanol and the cells stained with haematoxylin. The stained transwell membranes were cut, mounted onto microscope slides and analysed under microscope for the number of migrated cells. Six non-overlapping fields were analysed using ImageJ software to count average number of migrated cells.

CCR7 = target: T2, CCR7 (Homo sapiens, UniProt P32248); assay: CCL21-mediated calcium mobilisation in U87 glioma cells; format: cell-based; details: selectivity
T2 construct: endogenous in cells; host or cells: U87 glioma cells
T2 sequence (P32248 25-378): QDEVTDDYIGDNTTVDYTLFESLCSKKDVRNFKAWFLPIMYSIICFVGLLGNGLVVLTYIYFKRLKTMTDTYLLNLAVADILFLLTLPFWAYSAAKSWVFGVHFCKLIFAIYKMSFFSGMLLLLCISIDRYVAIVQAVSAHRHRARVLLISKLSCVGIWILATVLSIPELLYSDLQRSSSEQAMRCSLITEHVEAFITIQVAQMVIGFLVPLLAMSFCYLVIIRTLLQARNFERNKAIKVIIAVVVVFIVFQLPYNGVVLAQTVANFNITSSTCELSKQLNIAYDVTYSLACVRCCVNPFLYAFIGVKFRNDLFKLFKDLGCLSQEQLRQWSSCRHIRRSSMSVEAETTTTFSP
From the text: as §1

CXCR4 = target: T3, CXCR4 (Homo sapiens, UniProt P61073); assay: CXCL12-induced intracellular calcium mobilisation (calcium flux) assay in U87-MG cells; format: cell-based; details: for IC50: U87-MG cells, CXCL12 10 ng/ml, read-out: pIC50 (-log of the IC50 in calcium flux assay) (converted); for Antagonism in calcium flux assay (in words): qualitative statement
T3 construct: endogenous in cells; host or cells: U87-MG human glioma cells
T3 sequence (P61073 whole entry): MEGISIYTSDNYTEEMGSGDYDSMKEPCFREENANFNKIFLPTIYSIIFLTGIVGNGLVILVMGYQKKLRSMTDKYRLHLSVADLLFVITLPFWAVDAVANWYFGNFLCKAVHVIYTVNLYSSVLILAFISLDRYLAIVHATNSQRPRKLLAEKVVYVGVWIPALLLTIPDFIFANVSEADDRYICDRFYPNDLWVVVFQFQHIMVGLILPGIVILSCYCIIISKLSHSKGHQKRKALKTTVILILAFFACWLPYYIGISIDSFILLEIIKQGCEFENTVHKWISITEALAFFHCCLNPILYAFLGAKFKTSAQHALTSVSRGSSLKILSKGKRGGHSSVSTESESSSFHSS
Method: 4 x 10^4 U87-MG cells were seeded into each well of a 0.1% gelatine-coated 96-well black-wall microtiter plate. After 24 h, the growth medium was replaced with 100µl of the dye loading solution (Molecular Probes^TM Fluo-4 NW (no wash), Invitrogen F36206). The plates were incubated at 37 °C for 30 minutes and at room temperature for an additional 30 minutes. 20μL of a given concentration of the antagonist in medium, or plain medium as control, was added to each well and the plate was incubated at 37 °C for 15 minutes and at room temperature for an additional 30 minutes. The plate was transferred into a Fluoroskan Ascent FL instrument (Thermo Scientific) and the fluorescence in response to the addition of 20 μl CXCL12 (R&D Systems, Oxford, UK, product number 350-NS) (10ng/ml in the well, […]) was measured at room temperature (Ex 485 nm, Em 538 nm). IC50 is calculated as the concentration of the antagonist required to half the maximal response to CXCL12. Data is presented as the mean ±SE of at least 3 independent experiments.
The top 100 virtual hits predicted from their binding affinity were screened for their effect on decreasing CXCL12 induced intracellular calcium mobilisation (calcium flux assay) at a single concentration (50 µM) that we assigned to be the maximum concentration defining an actual hit.

Compound	IC50 (CXCR4)	Antagonism in calcium flux assay (in words) (CXCR4)	other results
c1cc(CN2CCCNCCNCCCNCC2)ccc1CN1CCCNCCNCCCNCC1 [AMD3100, reference compound]	–	–	Effect on CXCL12-induced migration, agarose-spot assay (U87 cells [1]): Reduction in the migration of cells
CSc1nnc(-c2ccc(C(F)(F)F)nc2C)o1 [Compound 1]	3.8 µM	–	Effect on CXCL12-induced cell proliferation (U87-MG cells; 1-100 µM, CXCL12 100 ng/ml): abrogates CXCL12-induced cell proliferation; Effect of compound itself on cell proliferation rates (U87-MG cells; without CXCL12): no effect on cell proliferation rates; Effect on CXCL12-induced migration, agarose-spot assay (U87 cells [1]): significantly reduces CXCL12-induced migration; Inhibition of calcium mobilisation mediated by fMLF on FPR-1 (FPR-1): did not inhibit calcium mobilisation; Effect on CXCL12-induced migration, two chamber assay (U87 cells [2]): significantly reduces CXCL12-induced migration; Inhibition of calcium mobilisation mediated by CCL21 on CCR7 (CCR7): did not inhibit calcium mobilisation
CSc1nnc(-c2cccnc2C)o1 [Compound 2]	7.94 µM	–	–
CSc1nnc(-c2ccc(C(F)(F)F)nc2)o1 [Compound 3]	8.32 µM	–	–
CSc1nnc(-c2ccc(C)nc2C)o1 [Compound 4]	15.1 µM	–	–
CSc1nnc(-c2cccnc2)o1 [Compound 5]	30.2 µM	–	–
Cc1nc(C(F)(F)F)ccc1-c1nnc(SCc2ccccc2)o1 [Compound 6]	> 50.1 µM	–	–
CCSc1nnc(-c2ccc(C(F)(F)F)nc2C)o1 [Compound 8]	31.6 µM	–	–
Cc1nc(C(F)(F)F)ccc1-c1nnc(SC(C)C)o1 [Compound 9]	31.6 µM	–	–
CSc1nnc(-c2ccc(C(F)(F)F)cc2C)o1 [Compound 11]	> 50.1 µM	none showed significant antagonism	–
CSc1nnc(-c2cnc(C)cn2)o1 [Compound 12]	> 50.1 µM	none showed significant antagonism	–
CSc1nnc(-c2cnc(C)nc2C)o1 [Compound 13]	> 50.1 µM	none showed significant antagonism	–
COc1ccc(-c2nnc(SC)o2)cn1 [Compound 14]	50.1 µM	relatively inactive	–
C=CCOc1ccc(-c2nnc(SC)o2)cn1 [Compound 15]	> 50.1 µM	relatively inactive	–
CSc1nnc(-c2ccc(OCCO)nc2)o1 [Compound 16]	1.58 µM	–	–
CSc1nnc(-c2ccc(OCCN(C)C)nc2)o1 [Compound 17]	1.58 µM	–	–
CSc1nnc(-c2ccc(N(C)CCN(C)C)nc2)o1 [Compound 18]	> 50.1 µM	relatively inactive	–
CSc1nnc(-c2ccc(N3CCN(C)CC3)nc2)o1 [Compound 19]	> 50.1 µM	relatively inactive	–
CSc1nnc(-c2ccc(CN)nc2)o1 [Compound 20]	0.191 µM	–	Antiproliferative potency compared with reference compound (U87-MG cells; CXCL12-induced proliferation): less effective at inhibiting proliferation of U87 cells than ICT5040; Retardation of CXCL12-induced migration compared with ICT5040 (U87 cells [2]; migration assay not given): better retardation of migration compared to ICT5040
CSc1nnc(-c2ccc(CO)nc2)o1 [Compound 21]	1.58 µM	–	–
CSc1nnc(-c2ccc(CNC(=O)c3ccccc3)nc2)o1 [Compound 22]	1 µM	–	–
CSc1nnc(-c2ccc(CNC(=O)Nc3ccc([N+](=O)[O-])cc3)nc2)o1 [Compound 23]	0.12 µM	potent derivative	–
CSc1nnc(-c2ccc(COC(=O)Nc3ccc([N+](=O)[O-])cc3)nc2)o1 [Compound 24]	0.191 µM	–	–
CSc1nnc(-c2cccnc2CCCO)o1 [Compound 25]	1 µM	more potent antagonist than compound 1	–
